Test system: MDR-TB patient isolate (resistant to isoniazid and rifampin)
Assay type: cell-based, M. tuberculosis
Settings: gallium about 0 to about 500 μM

## O=[N+]([O-])[O-].O=[N+]([O-])[O-].O=[N+]([O-])[O-].[Ga+3] [gallium nitrate]
  activity against MDR M. tuberculosis strain: retained full activity
